One molecule from US20060069132A1, “Azolecarboxamide herbicides” (priority 2004, published 2006) can be followed below.

For one test, the system named is barnyardgrass. Nature of the test: Test A pre-/postemergence herbicide test. It counts as in vivo, Echinochloa crus-galli. Summed up:
(§1)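 Pre: seeded sandy loam, directed soil spray, compound in non-phytotoxic solvent + surfactant. Post: 1–2-leaf plants (2–10 cm), sprayed to runoff. Greenhouse ~10 d; visual injury vs untreated, 0–100 scale.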

The test system of a further test is large crabgrass. The experiment in a line: Test A pre-/postemergence herbicide test. It counts as in vivo, Digitaria sanguinalis. In outline: as §1
For another test, the system named is redroot pigweed. The experiment in a line: Test A pre-/postemergence herbicide test. It counts as in vivo, Amaranthus retroflexus. Summed up: as §1
The subject of the next test is blackgrass. Nature of the test: Test B postemergence herbicide test. The format is in vivo, Alopecurus myosuroides. To be noted: postemergence, visual rating, scale 0 (no effect) to 100 (complete control). Summed up:
(§2)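 Paddy species grown to the 2-leaf stage under flooding; blackgrass sprayed postemergence at 2–18 cm (1- to 4-leaf stage). Plants kept in a greenhouse for 13 to 15 days, then visually rated against controls on 0 (no effect) to 100 (complete control).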

Test [1] has as its system small flower umbrella sedge. The experiment in a line: Test B flooded paddy test. It counts as in vivo, Cyperus difformis. The conditions noted are these: 1000 g ai/ha, visual rating, scale 0 to 100 (0 no effect, 100 complete control), 13 to 15 days. Summed up:
as §2

The test system of the next test is rice. The experiment in a line: Test C flooded paddy test. It counts as in vivo, Oryza sativa. In outline: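 Postemergence sprays applied to plants 2 to 18 cm tall (1- to 4-leaf stage); paddy species grown to 2-leaf stage under flooding. After 12 to 14 days in greenhouse, visual rating versus untreated controls on 0–100 scale (0 no effect, 100 complete control).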

[2] abbreviates: Postemergence, 500 g ai/ha, 0 to 100 scale, 0 no effect, 100 complete control.
[3] abbreviates: Postemergence, 2000 g ai/ha, 0 to 100 scale, 0 no effect, 100 complete control.
Setting [4] is: Preemergence, 2000 g ai/ha, visual rating, 0 to 100 scale (0 no effect, 100 complete control).
[5] abbreviates: preemergence, 500 g ai/ha, visual injury, 0 to 100 scale (0 no effect, 100 complete control).

Consider `CCc1nc(C(C)(C)C)sc1C(=O)Nc1cccc(C(=O)NC(C)(C)C)n1` [Compound 216], for which the “Barnyardgrass plant response rating” value is 0 in the test on barnyardgrass (setting [2]), 35 with barnyardgrass (setting [4]) and 15 in the test with barnyardgrass (setting [5]). In addition, the “Plant response rating, Barnyardgrass” value with barnyardgrass (setting [3]) came to 15. Besides, the “Crabgrass, Large plant response rating” value is reported as 20 in the test on large crabgrass (setting [2]), 55 with large crabgrass (setting [4]) and 15 in the test on large crabgrass (setting [5]). For the same molecule, the “Plant response rating, Crabgrass, Large” value in the test on large crabgrass (setting [3]) is on record as 20. In addition, the “Pigweed plant response rating” value turned out to be 30 in the test with redroot pigweed (setting [2]), 70 with redroot pigweed (setting [4]) and 0 in the test with redroot pigweed (setting [5]). Further, in the test on redroot pigweed (setting [3]), the “Plant response rating, Pigweed” value stood at 55. For the same molecule, the “Blackgrass plant response rating” value in the test on blackgrass (125 g ai/ha) and with blackgrass (500 g ai/ha) was 0 throughout. The “Sedge, Umbrella plant response rating” value in test [1] is given as 90. Besides, the “Rice plant response rating” value turned out to be 0 in the test on rice (62 g ai/ha, scale 0 to 100 (0 no effect, 100 complete control)); 0 in the test with rice (125 g ai/ha, scale 0 to 100 (0 no effect, 100 complete control)); 0 in the test with rice (250 g ai/ha, scale of 0 to 100, 0 is no effect, 100 is complete control). Besides, the “Plant response rating, Rice” value in the test on rice (500 g ai/ha, visual rating after 12 to 14 days, scale 0 to 100 (0 no effect, 100 complete control)) is 30.
